Legend:
Assay in all cases: relative viability (nuclei count vs DMSO), 5 days (fraction); higher = more cells survive
[1] = compound: C1CNCCC1C2=CC(=NN2)C3=CC=NC=C3 + CCNC(=O)c1noc(-c2cc(C(C)C)c(O)cc2O)c1-c1ccc(CN2CCOCC2)cc1 [Luminespib] (partner 0.01 µM)
Procedure, shortened: (§1)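 After 5 days of treatment, lung cancer cells in 1536-well plates were fixed and stained in a single step (final 0.05% Triton X-100, 1% formaldehyde, 1 ug/ml Hoechst) and their nuclei counted on 4× images. Treatment had been applied by pin tool the day after seeding as one drug alone or as a fixed anchor-drug dose with five library-drug doses (not always all listed) in √10 steps. Relative viability is the nuclei count of treated wells divided by that of vehicle wells, and values are medians of duplicate plates.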

[2] = compound: C1CNCCC1C2=CC(=NN2)C3=CC=NC=C3 + CS(=O)(=O)CCNCc1ccc(-c2ccc3ncnc(Nc4ccc(OCc5cccc(F)c5)c(Cl)c4)c3c2)o1 [Lapatinib] (partner 2 µM)
Procedure, shortened: as §1

[3] = compound: C1CNCCC1C2=CC(=NN2)C3=CC=NC=C3 + NC(=O)Nc1cc(-c2cccc(F)c2)sc1C(=O)N[C@H]1CCCNC1 [AZD7762] (partner 0.2 µM)
Procedure, shortened: as §1

Tanzisertib + Pictilisib = compound: O[C@H]1CC[C@H](Nc2ncc3nc(Nc4c(F)cc(F)cc4F)n([C@H]4CCOC4)c3n2)CC1 [Tanzisertib] + CS(=O)(=O)N1CCN(Cc2cc3nc(-c4cccc5[nH]ncc45)nc(N4CCOCC4)c3s2)CC1 [Pictilisib] (partner 1 µM)
Procedure, shortened: as §1

| Cell Line | relative viability ([1]; first compound 0.08 µM) | relative viability ([1]; first compound 0.8 µM) | relative viability ([1]; first compound 2.53 µM) | relative viability ([1]; first compound 8 µM) | relative viability ([2]; first compound 0.08 µM) | relative viability ([2]; first compound 0.8 µM) | relative viability ([2]; first compound 2.53 µM) | relative viability ([2]; first compound 8 µM) | relative viability ([3]; first compound 0.08 µM) | relative viability ([3]; first compound 0.8 µM) | relative viability ([3]; first compound 2.53 µM) | relative viability ([3]; first compound 8 µM) | relative viability (Tanzisertib + Pictilisib; first compound 0.08 µM) | relative viability (Tanzisertib + Pictilisib; first compound 0.253 µM) | relative viability (Tanzisertib + Pictilisib; first compound 0.8 µM) | relative viability (Tanzisertib + Pictilisib; first compound 2.53 µM) | relative viability (Tanzisertib + Pictilisib; first compound 8 µM) |
| --- | --- | --- | --- | --- | --- | --- | --- | --- | --- | --- | --- | --- | --- | --- | --- | --- | --- |
| A-427 | 0.789 | 1.2 | 0.908 | 0.92 | 1.12 | 1.15 | 0.971 | 0.978 | 0.752 | 0.802 | 0.92 | 0.774 | 0.822 | 0.728 | 0.704 | 0.683 | 0.606 |
| RERF-LC-KJ | 1.14 | 1.3 | 1.45 | 1.42 | 0.784 | 0.835 | 0.843 | 0.85 | 0.905 | 1.04 | 1.11 | 1.01 | 0.634 | 0.606 | 0.571 | 0.511 | 0.458 |
| NCI-H727 | 0.27 | 0.693 | 0.453 | 0.36 | 0.717 | 0.847 | 1.01 | 0.981 | 0.658 | 0.474 | 0.72 | 0.773 | 0.356 | 0.463 | 0.363 | 0.333 | 0.307 |
| LCLC-97TM1 | 0.734 | 0.916 | 0.962 | 0.713 | 1.05 | 1.39 | 1.59 | 1.04 | 0.27 | 0.239 | 0.248 | 0.332 | – | 0.16 | 0.176 | 0.159 | 0.164 |
| BEN | 0.215 | 0.282 | 0.341 | 0.344 | 0.594 | 0.571 | 0.939 | 0.761 | 0.546 | 0.634 | 0.675 | 0.772 | 0.577 | 0.555 | 0.612 | 0.561 | 0.48 |
| LC-2-ad | – | 1.13 | 1.13 | 0.987 | 1.04 | 1.05 | 1 | 0.914 | 0.84 | 0.859 | 0.872 | 0.87 | 0.506 | 0.426 | 0.458 | 0.0954 | 0.359 |
| ABC-1 | 0.517 | 0.69 | 1.02 | 0.663 | 1.14 | 1.25 | 1.09 | 1.38 | 0.851 | 0.519 | 0.915 | 1.02 | 0.906 | 0.837 | 0.686 | 0.764 | 0.785 |
| NCI-H647 | 0.151 | 0.21 | 0.157 | 0.101 | 1.06 | 1.26 | 1.15 | 1.01 | 0.409 | 0.43 | 0.383 | 0.431 | 0.456 | 0.537 | 0.474 | 0.436 | 0.141 |

From the supplement of paper PMC10307832
